PubChem BioAssay (NCI)
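Each compound was tested at five concentrations against cells in 96-well plates for 48 hours. At the TGI there is no net growth.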

Experiments:
Assay in all cases: growth of human tumour cells (NCI), 48 h
DU-145 prostate = system: DU-145 prostate
786-0 renal = system: 786-0 renal
A549 NSCLC = system: A549 NSCLC
SF-539 CNS = system: SF-539 CNS
MALME-3M melanoma = system: MALME-3M melanoma
HT29 colon = system: HT29 colon
RXF 393 renal = system: RXF 393 renal
SF-268 CNS = system: SF-268 CNS
SF-295 CNS = system: SF-295 CNS
OVCAR-5 ovarian = system: OVCAR-5 ovarian
EKVX NSCLC = system: EKVX NSCLC
SNB-75 CNS = system: SNB-75 CNS
IGROV1 ovarian = system: IGROV1 ovarian
HOP-92 NSCLC = system: HOP-92 NSCLC
MCF7 breast = system: MCF7 breast
SK-MEL-5 melanoma = system: SK-MEL-5 melanoma
NCI-H460 lung = system: NCI-H460 lung
MDA-MB-231 breast = system: MDA-MB-231 breast
SK-MEL-28 melanoma = system: SK-MEL-28 melanoma
TK-10 renal = system: TK-10 renal
A498 renal = system: A498 renal
OVCAR-8 ovarian = system: OVCAR-8 ovarian
SW-620 colon = system: SW-620 colon
CAKI-1 renal = system: CAKI-1 renal
HL-60(TB) leukemia = system: HL-60(TB) leukemia
RPMI-8226 leukemia = system: RPMI-8226 leukemia
HCT-15 colon = system: HCT-15 colon
NCI-H226 lung = system: NCI-H226 lung
UO-31 renal = system: UO-31 renal
LOX IMVI melanoma = system: LOX IMVI melanoma
SR leukemia = system: SR leukemia
MOLT-4 leukemia = system: MOLT-4 leukemia
UACC-257 melanoma = system: UACC-257 melanoma
UACC-62 melanoma = system: UACC-62 melanoma
SK-OV-3 ovarian = system: SK-OV-3 ovarian
NCI-H23 lung = system: NCI-H23 lung
CCRF-CEM leukemia = system: CCRF-CEM leukemia
K-562 leukemia = system: K-562 leukemia
SK-MEL-2 melanoma = system: SK-MEL-2 melanoma
PC-3 prostate = system: PC-3 prostate
HS 578T breast = system: HS 578T breast
HCT-116 colon = system: HCT-116 colon
U251 CNS = system: U251 CNS
M14 melanoma = system: M14 melanoma
SN12C renal = system: SN12C renal
HOP-62 NSCLC = system: HOP-62 NSCLC
MDA-MB-435 = system: MDA-MB-435
NCI/ADR-RES ovarian = system: NCI/ADR-RES ovarian
SNB-19 CNS = system: SNB-19 CNS
BT-549 breast = system: BT-549 breast
T-47D breast = system: T-47D breast
KM12 colon = system: KM12 colon
HCC-2998 colon = system: HCC-2998 colon
COLO 205 colon = system: COLO 205 colon
ACHN renal = system: ACHN renal
OVCAR-4 ovarian = system: OVCAR-4 ovarian
NCI-H522 lung = system: NCI-H522 lung
OVCAR-3 ovarian = system: OVCAR-3 ovarian

**Q.** With `CCOC(=O)/C=C(\C)Sc1cc(O)c2ccccc2c1O` as the compound, how does the TGI (DU-145 prostate) read?
**A.** > 100 µM

**Q.** What about the TGI (786-0 renal) of the same compound?
**A.** 44.2 µM

**Q.** What about the TGI (A549 NSCLC) of the same compound?
**A.** 85.9 µM

**Q.** What about the TGI (SF-539 CNS) of the same compound?
**A.** 45 µM

**Q.** What about the TGI (MALME-3M melanoma) of the same compound?
**A.** 29.1 µM

**Q.** What about the TGI (HT29 colon) of the same compound?
**A.** 42.9 µM

**Q.** What about the TGI (RXF 393 renal) of the same compound?
**A.** 31.9 µM

**Q.** And the TGI (SF-268 CNS)?
**A.** 25 µM

**Q.** What about the TGI (SF-295 CNS) of the same compound?
**A.** 51.6 µM

**Q.** And the TGI (OVCAR-5 ovarian)?
**A.** 54.3 µM

**Q.** And the TGI (EKVX NSCLC)?
**A.** 81.9 µM

**Q.** And the TGI (SNB-75 CNS)?
**A.** 23.8 µM

**Q.** What about the TGI (IGROV1 ovarian) of the same compound?
**A.** 27.7 µM

**Q.** What about the TGI (HOP-92 NSCLC) of the same compound?
**A.** 62.4 µM

**Q.** And the TGI (MCF7 breast)?
**A.** 65.6 µM

**Q.** What about the TGI (SK-MEL-5 melanoma) of the same compound?
**A.** 26.6 µM

**Q.** And the TGI (NCI-H460 lung)?
**A.** 44.6 µM

**Q.** What about the TGI (MDA-MB-231 breast) of the same compound?
**A.** 44.2 µM

**Q.** And the TGI (SK-MEL-28 melanoma)?
**A.** 30.4 µM

**Q.** What about the TGI (TK-10 renal) of the same compound?
**A.** 53.8 µM

**Q.** And the TGI (A498 renal)?
**A.** 41.1 µM

**Q.** And the TGI (OVCAR-8 ovarian)?
**A.** 42.4 µM

**Q.** What about the TGI (SW-620 colon) of the same compound?
**A.** > 100 µM

**Q.** What about the TGI (CAKI-1 renal) of the same compound?
**A.** 46.8 µM

**Q.** What about the TGI (HL-60(TB) leukemia) of the same compound?
**A.** 88.7 µM

**Q.** What about the TGI (RPMI-8226 leukemia) of the same compound?
**A.** > 100 µM

**Q.** What about the TGI (HCT-15 colon) of the same compound?
**A.** 37.8 µM

**Q.** And the TGI (NCI-H226 lung)?
**A.** 61.3 µM

**Q.** What about the TGI (UO-31 renal) of the same compound?
**A.** 18.9 µM

**Q.** What about the TGI (LOX IMVI melanoma) of the same compound?
**A.** 92.2 µM

**Q.** What about the TGI (SR leukemia) of the same compound?
**A.** > 100 µM

**Q.** What about the TGI (MOLT-4 leukemia) of the same compound?
**A.** > 100 µM

**Q.** And the TGI (UACC-257 melanoma)?
**A.** 35.6 µM

**Q.** What about the TGI (UACC-62 melanoma) of the same compound?
**A.** 60.1 µM

**Q.** And the TGI (SK-OV-3 ovarian)?
**A.** 66.4 µM

**Q.** And the TGI (NCI-H23 lung)?
**A.** > 100 µM

**Q.** And the TGI (CCRF-CEM leukemia)?
**A.** > 100 µM

**Q.** What about the TGI (K-562 leukemia) of the same compound?
**A.** > 100 µM

**Q.** What about the TGI (SK-MEL-2 melanoma) of the same compound?
**A.** 50.5 µM

**Q.** What about the TGI (PC-3 prostate) of the same compound?
**A.** 67.2 µM

**Q.** What about the TGI (HS 578T breast) of the same compound?
**A.** > 100 µM

**Q.** What about the TGI (HCT-116 colon) of the same compound?
**A.** > 100 µM

**Q.** And the TGI (U251 CNS)?
**A.** 40.9 µM

**Q.** And the TGI (M14 melanoma)?
**A.** 52.5 µM

**Q.** And the TGI (SN12C renal)?
**A.** 83.5 µM

**Q.** And the TGI (HOP-62 NSCLC)?
**A.** 39.8 µM

**Q.** And the TGI (MDA-MB-435)?
**A.** 5.8 µM

**Q.** What about the TGI (NCI/ADR-RES ovarian) of the same compound?
**A.** 86.7 µM

**Q.** And the TGI (SNB-19 CNS)?
**A.** 34.1 µM

**Q.** What about the TGI (BT-549 breast) of the same compound?
**A.** 40.9 µM

**Q.** What about the TGI (T-47D breast) of the same compound?
**A.** 9.9 µM

**Q.** And the TGI (KM12 colon)?
**A.** 75.4 µM

**Q.** And the TGI (HCC-2998 colon)?
**A.** 28.1 µM

**Q.** What about the TGI (COLO 205 colon) of the same compound?
**A.** 35.1 µM

**Q.** What about the TGI (ACHN renal) of the same compound?
**A.** 29.7 µM

**Q.** And the TGI (OVCAR-4 ovarian)?
**A.** 32 µM

**Q.** And the TGI (NCI-H522 lung)?
**A.** 24.9 µM

**Q.** And the TGI (OVCAR-3 ovarian)?
**A.** > 100 µM
